Assay results: publication PMC7016953 (Cells, 2020)
Blank lines part the entries; values can stand above or below the compound they belong to.

Tests used:
[1] = system: T1, heteromeric TRPC3:TRPC6 channel complexes; experiment: Fluo-4 Ca2+ influx assay in HEK293 cells co-expressing TRPC3 and TRPC6; format: cell-based; settings: fluo-4 concentration response analysis
T1 construct: expressed in transfected cells; host or cells: HEK293, stably co-transfected
Protocol: All fluorometric Ca^2+ assays were done in (4-(2-hydroxyethyl)-1-piperazineethanesulfonic acid) (HEPES)-buffered saline (HBS), containing 132 mM NaCl, 6 mM KCl, 1 mM MgCl2, 1 mM CaCl2, 5.5 mM D-glucose, 10 mM HEPES, and 0.035% bovine serum albumin (BSA) adjusted to pH 7.4 with NaOH. For measurements in Ca^2+-free bath solutions, a modified HBS without CaCl2 was supplemented with 200 µM ethylene glycol-bis(β-aminoethyl ether)-N,N,N′,N′-tetraacetic acid (EGTA).
The primary compound screen and the generation of concentration response curves in HEK293 cells or in PC12 cells were performed by using a custom-made fluorescence plate imager built into a robotic liquid handling station equipped with a 96-tip multichannel head (Freedom Evo 150, Tecan, Männedorf, Switzerland) as described previously. To this end, trypsinized cell suspensions were loaded with 4 µM fluo-4/AM (Invitrogen, Thermo Fisher Scientific, Waltham, MA, U.S.A.) in cell culture medium for 30 min at 37 °C. After brief centrifugation, cells were resuspended in HBS and dispensed into black pigmented, clear-bottom 384-well plates (Greiner µClear, Frickenhausen, Germany). Plates were mounted on the imager, and fluorescence signals were recorded with a cooled Zyla 5.5 camera (Andor, Belfast, UK) through a 515 nm long pass filter. The image acquisition was controlled by the µManager software (http://micro-manager.org), and excitation with a LED array (470 nm) was synchronized by the camera trigger output. After baseline recording for about 60 s, the compound libraries or serial dilutions of activators or inhibitors were added to the cells by the liquid handling device. When inhibitory potencies were evaluated, a second pipetting step with the respective reference agonist was performed. Fluorescence intensities were calculated from image stacks for each well with ImageJ (National Institutes of Health, Bethesda, MD, U.S.A.), corrected for background signals, and normalized to the initial intensities (F/F0). […]

hTRPC7-YFP = system: T2, hTRPC7-YFP; experiment: Fluo-4 Ca2+ influx assay in HEK293 cells stably expressing TRPC7; format: cell-based, human; settings: fluo-4 concentration response analysis
T2 construct: expressed in transfected cells

TRPC3 = target: T3, TRPC3 (Homo sapiens, UniProt Q13507); experiment: Fluo-4 Ca2+ influx assay in HEK TRPC3-YFP cell suspensions; format: cell-based; settings: for TRPC3 activation in concentration response analysis: fluo-4, up to 200 µM, compared with solvent (DMSO); for IC50: inhibitor 5 min, then 50 µM artemisinin, fluo-4, read-out: IC50 for inhibition of artemisinin-induced increases in [Ca2+]i; for effect of preincubation on responses to artemisinin (1–200 µM): 10 µM for 5 min
T3 construct: expressed in transfected cells
T3 sequence (Q13507 1-848 isoform Q13507-3): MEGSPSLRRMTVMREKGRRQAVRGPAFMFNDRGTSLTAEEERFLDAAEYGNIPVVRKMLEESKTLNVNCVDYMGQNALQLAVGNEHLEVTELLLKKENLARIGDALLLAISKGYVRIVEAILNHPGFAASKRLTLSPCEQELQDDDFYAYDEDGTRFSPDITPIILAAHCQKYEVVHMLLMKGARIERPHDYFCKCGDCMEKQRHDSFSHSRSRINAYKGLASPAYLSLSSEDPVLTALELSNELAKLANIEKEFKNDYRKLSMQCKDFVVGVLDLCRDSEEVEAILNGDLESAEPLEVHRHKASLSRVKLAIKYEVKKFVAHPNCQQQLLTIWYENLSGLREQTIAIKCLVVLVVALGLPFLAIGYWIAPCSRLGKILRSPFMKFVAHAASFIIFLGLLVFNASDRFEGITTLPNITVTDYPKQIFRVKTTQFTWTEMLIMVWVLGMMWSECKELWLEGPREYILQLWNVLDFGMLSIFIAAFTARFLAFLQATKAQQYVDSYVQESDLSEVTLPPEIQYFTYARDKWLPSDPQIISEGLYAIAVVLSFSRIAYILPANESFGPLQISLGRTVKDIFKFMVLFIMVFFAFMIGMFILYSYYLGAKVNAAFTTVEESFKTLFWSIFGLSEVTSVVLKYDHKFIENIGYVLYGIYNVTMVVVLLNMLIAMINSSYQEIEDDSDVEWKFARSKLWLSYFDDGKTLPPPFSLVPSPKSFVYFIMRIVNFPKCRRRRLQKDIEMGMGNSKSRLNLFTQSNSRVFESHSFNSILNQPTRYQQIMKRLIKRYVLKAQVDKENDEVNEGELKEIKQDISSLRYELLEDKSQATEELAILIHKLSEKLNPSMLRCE

[2] = system: PC12 cells (native TRPC3 channel complexes); experiment: [Ca2+]i analysis in fura-2-loaded PC12 cells; format: cell-based, rat; settings: artemisinin 50 or 100 µM; 6–12 experiments for each compound
Protocol: Human embryonic kidney 293 (HEK293) cells were stably transfected with expression plasmids that encode hTRPC3-YFP, hTRPC6-YFP, hTRPC7-YFP, mTRPC4ß-YFP, rTRPV1-CFP, rTRPV2-YFP, rTRPV3-YFP, mTRPV4-YFP, or hTRPM2 as previously described. Cell lines were cultured in Earle’s minimum essential medium (MEM; Sigma, Munich, Germany), supplemented with 10% fetal calf serum (Gibco Thermo Fisher Scientific, Darmstadt, Germany), 2 mM L-glutamine, and required concentrations of geneticin in a range of 0.4–1 mg/mL. A HEK293mTRPC5-YFP cell line was maintained and induced as described before. The HEK293mTRPM3α2 cells (expressing the Ca^2+-permeable main variant of mouse TRPM3) were kindly provided by Johannes Oberwinkler (Marburg, Germany), the HEK293hTRPA1 cells that constitutively overexpress the human TRPA1 were from Dr. Natalie Tigue and Dr. Steve Moore (GlaxoSmithKline, Harlow, UK). With the exception of mTRPC5-YFP, all cell lines constitutively overexpress the respective TRP channel under the control of a cytomegalovirus (CMV) promoter. A HEK cell line stably expressing the human protein kinase C (PKC) ε C-terminally tagged with YFP [13] was generated and maintained in the same medium as HEKTRPC3-YFP cells. PC12 cells were cultured in RPMI-1640 (Sigma, Munich, Germany) with 10% fetal calf serum, 2 mM L-glutamine, 100 U/mL penicillin, and 0.1 mg/mL streptomycin. For electrophysiological and single cell [Ca^2+]i imaging experiments, PC12 cells were plated onto 25 mm poly-L-lysine-coated glass coverslips and measured 24–48 h after seeding. All cells were maintained at 37 °C in a 5% CO2-aerated, humidified atmosphere.
The microfluorometric single-cell [Ca^2+]i analysis was performed on an inverted epifluorescence microscope (Carl Zeiss, Jena, Germany) and calibrated as described. Cells were grown on 25 mm coverslips and loaded with 4 µM fura-2/AM (AAT Bioquest, Sunnyvale, CA, U.S.A.) in HBS containing 0.2% BSA for 30 min at 37 °C. After gently rinsing the coverslips with HBS, coverslips were mounted in a bath chamber and superfused with HBS containing 0.035% BSA.
Figure 7 Expression of TRPC3 and functional responses to TRPC activators in PC12 rat pheochromocytoma cells. (A) Immunofluorescence analysis of TRPC3 (green channel) and tyrosine hydroxylase (TH; red channel) expression in PC12 cells. Nuclei were counterstained with DAPI (blue channel). Bars: 20 µm scale. Time course of the [Ca^2+]i (B) and averaged basal and peak [Ca^2+]i values (C) were recorded by microfluorometric analysis in fura-2-loaded PC12 cells grown on glass coverslips. […] Data represent averages (B) or means and S.D. (C) of 6–12 imaging experiments for each compound. Significant increases compared to the respective basal values are indicated (#: p < 0.05; Student´s t-test for paired data).

[3] = system: PC12 cells (native TRPC3 channel complexes); experiment: Whole-cell patch-clamp recordings in PC12 cells; format: cell-based, rat; settings: 20 µM CBN 2910-0498, 10 µM SAR7334, or 10 µM GSK417654A
Protocol: The recordings of TRPC3, TRPC6, or TRPC7 membrane currents in HEK293 or PC12 cells were realized by using a Multiclamp 700B amplifier with a Digidata 1440A digitizer controlled by the PClamp 10 software (all Molecular Devices, Sunnyvale, CA, U.S.A.). Recordings were obtained at room temperature either in the whole-cell or in an outside-out configuration as indicated. Cells were seeded as described above, but at lower density, mounted in a chamber (Warner Instruments, Hamden, CT; U.S.A.), placed onto the stage of an inverted microscope, and perfused with required solution. The standard extracellular solution contained 140 mM NaCl, 5 mM CsCl, 2 mM MgCl2, 1 mM CaCl2, 10 mM HEPES, and 0.035% BSA adjusted to pH 7.4 with NaOH. The composition of standard intracellular solution was 140 mM CsCl, 1 mM MgCl2, 5 mM EGTA, and 10 mM HEPES adjusted to pH 7.25 with CsOH; the osmolarity was 295 mOsm l^−1. In outside-out measurements, the pipette solution contained 5 mM EGTA and 1.1 mM CaCl2 to achieve a calculated free Ca^2+ concentration of 100 nM.
Patch pipettes were pulled from borosilicate glass capillaries BG150F-8P (Science Products, Hofheim, Germany) with a PIP6 pipette puller (HEKA Elektronik, Lambrecht, Germany). […] In all whole-cell measurements, the series resistance was lower than 13 MΩ, and compensated by 70%. If the access was unstable during the experiment (increase in series resistance by more than 15% at the end of the experiment), the cell was omitted from the analysis. To record current/voltage (I/V) curves, voltage ramps (400 mV s^−1) ranging from –100 to +100 mV were applied. Currents were filtered at 3 kHz with a four-pole Bessel filter and sampled at 10 kHz. […]
Figure 9 Artemisinin-induced ionic currents in HEK293 cells and in PC12 cells are sensitive to established TRPC3 inhibitors. […] Concentration–response curves were normalized to responses measured without an inhibitor (controls), and IC50 values were obtained by fitting a four-parameter Hill equation to the data. […]

EC50 (TRPC3; fluo-4, HEK TRPC3-YFP cell suspensions, read-out: potency to activate Ca2+ entry through TRPC3): 14800 nM
SMILES: CO[C@H]1O[C@@H]2O[C@@]3(C)CC[C@H]4[C@H](C)CC[C@@H]([C@H]1C)[C@@]24OO3 [artemether]
response of cells stably transfected with both TRPC3 and TRPC6 [1]: in a very similar fashion as HEKTRPC3-YFP cells
effect on TRPC7 (hTRPC7-YFP): inhibited

SMILES: O=C(c1cc2c(s1)CCCCC2)N1CCC(n2c(=O)[nH]c3ccccc32)CC1 [GSK-1702934A]
[Ca2+]i in fura 2-loaded PC12 cells [2]: significant increases in [Ca^2+]i

SMILES: C[C@H]1[C@H](OC(=O)CCC(=O)O)O[C@@H]2O[C@@]3(C)CC[C@H]4[C@H](C)CC[C@@H]1[C@@]24OO3 [artesunate]
TRPC3 activation in concentration response analysis (TRPC3): did not exert signals that were significantly stronger than responses to the solvent

IC50 (TRPC3): 500 nM
SMILES: COc1ccc(Nc2nc(C(=O)N3CCc4ccccc4C3)cs2)cc1 [GSK417654A]
effect on ionic currents stimulated by 50 µM artemisinin in PC12 cells [3]: rapidly reversed

IC50 (TRPC3): 1400 nM
SMILES: N#Cc1ccc(O[C@@H]2c3ccccc3C[C@H]2N2CCC[C@@H](N)C2)c(Cl)c1 [SAR7334]
effect on ionic currents stimulated by 50 µM artemisinin in PC12 cells [3]: rapidly reversed

effect of preincubation on responses to artemisinin (1–200 µM) (TRPC3): did not increase the responses
SMILES: O=C(NCCCCCCNC(=O)ON=C1CCCCC1)ON=C1CCCCC1 [RHC 80267]

effect of preincubation on responses to artemisinin (1–200 µM) (TRPC3): did not increase the responses
SMILES: O=c1c2ccccc2[nH]c(=S)n1CCN1CCC(=C(c2ccc(F)cc2)c2ccc(F)cc2)CC1 [R59949]

SMILES: CCO[C@H]1O[C@@H]2O[C@@]3(C)CC[C@H]4[C@H](C)CC[C@@H]([C@H]1C)[C@@]24OO3 [arteether]
effect on TRPC7 (hTRPC7-YFP): inhibited
TRPC3 activation in concentration response analysis (TRPC3): did not exert signals that were significantly stronger than responses to the solvent
